Earlier results on one molecule are cited in patent US20060100182A1, “Pharmaceutical compositions for the treatment of urinary incontinence” (priority 2002, published 2006).

Counter-ions that a name gives are not always drawn.

`CCN(CC)CC#CCOC(=O)C(O)(c1ccccc1)C1CCCCC1` (stereo not drawn) [oxybutynin, 4-(diethylamino)-2-butynyl acetate ∝-cyclohexyl ∝-hydroxyphenyl hydrochloride]: under “oral route, hepatic first-pass effect”, the systemic bioavailability is on record as approximately 6%. Moreover, for the setting “oral route, recommended doses, 5 mg tablets”, the maximum plasmatic levels is 8 to 18 ng/mL. The elimination half-life (statutory information DITROPAN, Vidal 2001) is 2 h.
